This is an account of results in patent US20080275084A1, “Piperidines for the Treatment of Chemokine Mediated Diseases” (ASTRAZENECA AB, priority 2005, published 2008).

Counter-ions that a name gives are not always drawn.

One assay addresses T1, human H1 receptor (Homo sapiens, UniProt P35367).
T1 construct: purchased Euroscreen SA, Brussels, Belgium ES-390-M; host or cells: CHO-K1
The experiment in a line: Histamine H1 receptor binding, competition displacement of [3H]-pyrilamine. As to conditions: displacement of 1 nM [3H]-pyrilamine, membranes of recombinant CHO-K1 cells expressing human H1 receptor, 1 hour at room temperature; for Ki: read-out: H1 pKi (converted). The procedure:
Histamine H1 receptor binding activity of compounds of the invention was assessed by competition displacement of 1 nM [3H]-pyrilamine (Amersham, Bucks, Product code TRK 608, specific activity 30 Ci/mmol) to 2 μg membranes prepared from recombinant CHO-K1 cells expressing the human H1 receptor (Euroscreen SA, Brussels, Belgium, product code ES-390-M) in assay buffer (50 mM Tris pH 7.4 containing 2 mM MgCl2, 250 mM sucrose and 100 mM NaCl) for 1 hour at room temperature.
The following compounds of the invention gave inhibition of [3H]pyrilamine binding: […]

The target in another assay is T2, recombinant human CCR3 (Homo sapiens, UniProt P51677).
T2 construct: expressed in transfected cells; host or cells: CHO-K1
T2 sequence (P51677 1-355): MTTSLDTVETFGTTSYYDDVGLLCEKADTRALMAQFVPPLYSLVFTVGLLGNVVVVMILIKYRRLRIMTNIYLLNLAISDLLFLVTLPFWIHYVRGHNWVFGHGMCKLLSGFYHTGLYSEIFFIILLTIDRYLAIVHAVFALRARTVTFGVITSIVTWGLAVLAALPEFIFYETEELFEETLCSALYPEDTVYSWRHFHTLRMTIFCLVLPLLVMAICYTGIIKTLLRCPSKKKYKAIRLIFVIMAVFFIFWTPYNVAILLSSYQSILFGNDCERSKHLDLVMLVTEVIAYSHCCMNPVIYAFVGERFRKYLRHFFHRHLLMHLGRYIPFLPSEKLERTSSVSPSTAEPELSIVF
The experiment in a line: Compound affinity at human recombinant CCR3 receptors, radioligand competition on CHO-K1 cell membranes. As to conditions: competition with 2 nM [3H]-4-(2,4-dichloro-3-methylphenoxy)-1'-[4-(methylsulfonyl)benzoyl]-1,4'-bipiperidine, 2 h at 37° C., mean pKi by Cheng-Prussof correction of pIC50, minimum 2 experiments. The assay is classed as binding. The procedure:
Determination of Compound Affinity at Human Recombinant CCR3 Receptors Assessed by Competition of [^3H]-4-(2,4-dichloro-3-methylphenoxy)-1′-[4-(methylsulfonyl)benzoyl]-1,4′-bipiperidine for CHO-K1 Cell Membranes In Vitro
Membranes, prepared from CHO-K1 cells stably expressing recombinant human CCR3, suspended in assay buffer (50 mM Tris-Base, pH 7.4; containing sodium chloride (100 mM) and magnesium chloride (2 mM)) were incubated in the presence of 2 nM [^3H]-4-(2,4-dichloro-3-methylphenoxy)-1′-[4-(methylsulfonyl)benzoyl]-1,4′-bipiperidine, along with vehicle (1% (v/v) DMSO), 4-(4-chloro-3-methylphenoxy)-1′-[2-(methylsulfonyl)benzoyl]-1,4′-bipiperidine (to define non-specific binding) or test compound for 2 h at 37° C. in round bottomed 96-well plates. The plates were then filtered onto GF/B filter plates, pre-soaked for 1 hour in plate-coating solution (0.3% (w/v) polyethylenimine, 0.2% (w/v) BSA in de-ionised water), using a 96-well plate Tomtec cell harvester. Four washes (250 μL) with wash buffer (50 mM Tris-Base, pH 7.4 containing sodium chloride (500 mM) and magnesium chloride (2 mM)) were performed at 4° C. to remove unbound radioactivity. […] The plates were sealed (TopSeal A) and filter-bound radioactivity was measured with a scintillation counter (TopCount, Packard BioScience) using a 1 minute counting protocol. […]
A general note: In a radioligand displacement assay an active substance lowers the binding of a labelled ligand.

T1 sequence (P35367 whole entry): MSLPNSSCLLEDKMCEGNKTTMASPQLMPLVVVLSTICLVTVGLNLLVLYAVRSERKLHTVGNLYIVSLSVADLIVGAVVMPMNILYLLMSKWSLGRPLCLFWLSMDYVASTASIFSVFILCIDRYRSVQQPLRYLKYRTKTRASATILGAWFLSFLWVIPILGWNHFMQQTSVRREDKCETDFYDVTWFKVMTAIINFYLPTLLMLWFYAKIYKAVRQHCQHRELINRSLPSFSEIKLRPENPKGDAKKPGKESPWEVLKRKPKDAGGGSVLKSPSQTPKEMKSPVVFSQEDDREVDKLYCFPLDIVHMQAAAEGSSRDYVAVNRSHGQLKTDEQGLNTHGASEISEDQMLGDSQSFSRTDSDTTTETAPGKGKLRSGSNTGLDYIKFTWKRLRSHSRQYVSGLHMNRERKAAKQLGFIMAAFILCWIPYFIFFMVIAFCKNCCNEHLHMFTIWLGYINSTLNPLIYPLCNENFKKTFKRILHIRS

With `Cc1c(OC2CCN(CC3CCN([C@@H](CC4CCCCC4)C(=O)O)CC3)CC2)ccc(Cl)c1Cl` [Example 2A, (2S)-3-Cyclohexyl-2-(4-{[4-(3,4-dichloro-2-methylphenoxy)piperidin-1-yl]methyl}piperidin-1-yl)propanoic acid], the Ki at human H1 receptor is 79.4 nM.
As for `Cc1c(OC2CCN(CC3CCN([C@@H](CC4CC4)C(=O)O)CC3)CC2)ccc(Cl)c1Cl` [Example 3A, (2S)-3-Cyclopropyl-2-(4-{[4-(3,4-dichloro-2-methylphenoxy)piperidin-1-yl]methyl}piperidin-1-yl)propanoic acid], at human H1 receptor, the Ki is 200 nM.
`O=C(O)[C@H](CC1CCCC1)N1CCC(CN2CCC(Oc3ccc(Cl)c(Cl)c3)CC2)CC1` [Example 4A, (2S)-3-Cyclopentyl-2-(4-{[4-(3,4-dichlorophenoxy)piperidin-1-yl]methyl}piperidin-1-yl)propanoic acid]: the Ki on human H1 receptor was 126 nM.
On the same count and under the same terms, to `O=C(O)C1(N2CCC(CN3CCC(Oc4ccc(Cl)c(Cl)c4)CC3)CC2)CCCCC1` [Example 6A, 1-(4-{[4-(3,4-dichlorophenoxy)piperidin-1-yl]methyl}piperidin-1-yl)cyclohexanecarboxylic acid] belongs 501 nM; to `Cc1c(OC2CCN(CC3CCN(C4(C(=O)O)CCCC4)CC3)CC2)ccc(Cl)c1Cl` [Example 8A, 1-(4-{[4-(3,4-dichloro-2-methylphenoxy)piperidin-1-yl]methyl}piperidin-1-yl)cyclopentanecarboxylic acid], 316 nM.
With `Cc1cc(Cl)ccc1OC1CCN(CC2CCN(C3(C(=O)O)CCCCC3)CC2)CC1` [Example 13A, 1-(4-{[4-(4-Chloro-2-methylphenoxy)piperidin-1-yl]methyl}piperidin-1-yl)cyclohexanecarboxylic acid dihydrochloride], on human H1 receptor, the Ki was 631 nM.
Take `Cc1cc(Cl)ccc1OC1CCN(CC2CCN([C@@](C)(CC(C)C)C(=O)O)CC2)CC1` [Example 16A, (2S)-2-{4-[4-(4-Chloro-2-methyl-phenoxy)-piperidin-1-ylmethyl]-piperidin-1-yl}-2,4-dimethyl-pentanoic acid]: the Ki on recombinant human CCR3 is 0.631 nM.
As for “(2S)-3-cyclohexyl-2-(4-{[4-(3,4-dichloro-2-methylphenoxy)piperidin-1-yl]methyl}piperidin-1-yl)propanoic acid [Example 1A]”, the “H1 pKi” value at human H1 receptor was 7.2.
